Counter-ions that a name gives are not always drawn.
Test: not given
Details: human, microsomes

Row | Compound | HLM stability (half-life, minutes) [min]
1 | CCCCCCCC(=O)N[C@H](CN1CCCC1)[C@H](OC(=O)c1ccccc1)c1ccc2c(c1)OCCO2 [I-a Hemitartrate salt, (1R,2R)-1-(2,3-dihydrobenzo[b][1,4]dioxin-6-yl)-2-octanamido-3-(pyrrolidin-1-yl)propyl benzoate] | <30
2 | CCCCCCCC(=O)N[C@H](CN1CCCC1)[C@H](OC(C)=O)c1ccc2c(c1)OCCO2 [I-e Hemitartrate salt, (1R,2R)-1-(2,3-dihydrobenzo[b][1,4]dioxin-6-yl)-2-octanamido-3-(pyrrolidin-1-yl)propyl acetate] | <30
3 | CCCCCCCC(=O)N[C@H](CN1CCCC1)[C@H](OC(=O)CC)c1ccc2c(c1)OCCO2 [I-f Hemitartrate salt, (1R,2R)-1-(2,3-dihydrobenzo[b][1,4]dioxin-6-yl)-2-octanamido-3-(pyrrolidin-1-yl)propyl propionate] | <30

Test: in vitro
Details: human, microsomes, pH 7.4

Row | Compound | half-life [min]
4 | CCCCCCCC(=O)N[C@H](CN1CCCC1)[C@H](OC(=O)Cc1ccccc1)c1ccc2c(c1)OCCO2 [I-b Hemitartrate salt, (1R,2R)-1-(2,3-dihydrobenzo[b][1,4]dioxin-6-yl)-2-octanamido-3-(pyrrolidin-1-yl)propyl 2-phenylacetate] | < 30
5 | CCCCCCCC(=O)N[C@H](CN1CCCC1)[C@H](OC(=O)c1ccccc1N)c1ccc2c(c1)OCCO2 [I-v, (1R,2R)-1-(2,3-dihydrobenzo[b][1,4]dioxin-6-yl)-2-octanamido-3-(pyrrolidin-1-yl)propyl 2-aminobenzoate] | < 30

Test: Metabolic stability of prodrugs in human liver microsomes
Details: pH 7.4

Row | Compound | half-life [min]
6 | CCCCCCCC(=O)N[C@H](CN1CCCC1)[C@H](O)c1ccc2c(c1)OCCO2 [Eliglustat, N-((1R, 2R)-1-(2,3-dihydrobenzo[b] [1,4]dioxin-6-yl)-1-hydroxy-3-(pyrrolidin-1-yl)propan-2-yl) octanamide] | 30
7 | CCCCCCCC(=O)N[C@H](CN1CCCC1)[C@H](OC(=O)CCCCC)c1ccc2c(c1)OCCO2 [I-aa, (1R,2R)-1-(2,3-dihydrobenzo[b][1,4]dioxin-6-yl)-2-octanamido-3-(pyrrolidin-1-yl)propyl hexanoate] | < 30
8 | CCCCCCCC(=O)N[C@H](CN1CCCC1)[C@H](OC(=O)c1cccnc1)c1ccc2c(c1)OCCO2 [I-c Hemitartrate salt, (1R,2R)-1-(2,3-dihydrobenzo[b][1,4]dioxin-6-yl)-2-octanamido-3-(pyrrolidin-1-yl)propyl nicotinate] | < 30
9 | CCCCCCCC(=O)N[C@H](CN1CCCC1)[C@H](OC(=O)c1ccccc1O)c1ccc2c(c1)OCCO2 [I-d Hemitartrate salt, (1R,2R)-1-(2,3-dihydrobenzo[b][1,4]dioxin-6-yl)-2-octanamido-3-(pyrrolidin-1-yl)propyl 2-hydroxybenzoate] | < 30
10 | CCCCCCCC(=O)N[C@H](CN1CCCC1)[C@H](OC(=O)C(C)C)c1ccc2c(c1)OCCO2 [I-g Hemitartrate salt, (1R,2R)-1-(2,3-dihydrobenzo[b][1,4]dioxin-6-yl)-2-octanamido-3-(pyrrolidin-1-yl)propyl isobutyrate] | < 30
11 | CCCCCCCC(=O)N[C@H](CN1CCCC1)[C@H](OC(=O)C(C)(C)C)c1ccc2c(c1)OCCO2 [I-h Hemitartrate salt, (1R,2R)-1-(2,3-dihydrobenzo[b][1,4]dioxin-6-yl)-2-octanamido-3-(pyrrolidin-1-yl)propyl pivalate] | < 30
12 | CCCCCCCC(=O)N[C@H](CN1CCCC1)[C@H](OC(=O)CCCCCCC)c1ccc2c(c1)OCCO2 [I-i Hemitartrate salt, (1R,2R)-1-(2,3-dihydrobenzo[b][1,4]dioxin-6-yl)-2-octanamido-3-(pyrrolidin-1-yl)propyl octanoate] | < 30
13 | CCCCCCCCCC(=O)O[C@H](c1ccc2c(c1)OCCO2)[C@@H](CN1CCCC1)NC(=O)CCCCCCC [I-j Hemitartrate salt, (1R,2R)-1-(2,3-dihydrobenzo[b][1,4]dioxin-6-yl)-2-octanamido-3-(pyrrolidin-1-yl)propyl decanoate] | 63
14 | CCCCCCCCCCCC(=O)O[C@H](c1ccc2c(c1)OCCO2)[C@@H](CN1CCCC1)NC(=O)CCCCCCC [I-k Hemitartrate salt, (1R,2R)-1-(2,3-dihydrobenzo[b][1,4]dioxin-6-yl)-2-octanamido-3-(pyrrolidin-1-yl)propyl dodecanoate] | 70
15 | CCCCCCCC(=O)N[C@H](CN1CCCC1)[C@H](OC(=O)[C@H](N)C(C)C)c1ccc2c(c1)OCCO2 [I-l Hydrochloride salt] | < 30
16 | CCCCCCCC(=O)N[C@H](CN1CCCC1)[C@H](OC(=O)[C@@H](N)C(C)C)c1ccc2c(c1)OCCO2 [I-m Hemitartrate salt] | < 30
17 | CCCCCCCC(=O)N[C@H](CN1CCCC1)[C@H](OC(=O)N(CC)CC)c1ccc2c(c1)OCCO2 [I-n Hemitartrate salt, (1R,2R)-1-(2,3-dihydrobenzo[b][1,4]dioxin-6-yl)-2-octanamido-3-(pyrrolidin-1-yl)propyl diethylcarbamate] | < 30
18 | CCCCCCCC(=O)N[C@H](CN1CCCC1)[C@H](OC(=O)CCC(=O)O)c1ccc2c(c1)OCCO2 [I-o, 4-((1R,2R)-1-(2,3-dihydrobenzo[b][1,4]dioxin-6-yl)-2-octanamido-3-(pyrrolidin-1-yl)propoxy)-4-oxobutanoic acid] | > 90
19 | CCCCCCCC(=O)N[C@H](CN1CCCC1)[C@H](OC(=O)OCC)c1ccc2c(c1)OCCO2 [I-p Hemitartrate salt, (1R,2R)-1-(2,3-dihydrobenzo[b][1,4]dioxin-6-yl)-2-octanamido-3-(pyrrolidin-1-yl)propyl ethyl carbonate] | < 30
20 | CCCCCCCC(=O)N[C@H](CN1CCCC1)[C@H](OC(=O)N1CCC(N2CCCCC2)CC1)c1ccc2c(c1)OCCO2 [I-q, (1R,2R)-1-(2,3-dihydrobenzo[b][1,4]dioxin-6-yl)-2-octanamido-3-(pyrrolidin-1-yl)propyl [1,4′-bipiperidine]-1′-carboxylate] | < 30
21 | CCCCCCCC(=O)N[C@H](CN1CCCC1)[C@H](OC(=O)N(C)C)c1ccc2c(c1)OCCO2 [I-r, (1R,2R)-1-(2,3-dihydrobenzo[b][1,4]dioxin-6-yl)-2-octanamido-3-(pyrrolidin-1-yl)propyl dimethylcarbamate] | < 30
22 | CCCCCCCC(=O)N[C@H](CN1CCCC1)[C@H](OC(=O)/C=C/C(=O)O)c1ccc2c(c1)OCCO2 [I-s, (E)-4-((1R,2R)-1-(2,3-dihydrobenzo[b][1,4]dioxin-6-yl)-2-octanamido-3-(pyrrolidin-1-yl)propoxy)-4-oxobut-2-enoic acid] | 64
23 | CCCCCCCC(=O)N[C@H](CN1CCCC1)[C@H](OC(=O)CCCC(=O)O)c1ccc2c(c1)OCCO2 [I-t, 5-((1R,2R)-1-(2,3-dihydrobenzo[b][1,4]dioxin-6-yl)-2-octanamido-3-(pyrrolidin-1-yl)propoxy)-5-oxopentanoic acid] | 65
24 | CCCCCCCC(=O)N[C@H](CN1CCCC1)[C@H](OC(=O)NC)c1ccc2c(c1)OCCO2 [I-u Hemitartrate salt, (1R,2R)-1-(2,3-dihydrobenzo[b][1,4]dioxin-6-yl)-2-octanamido-3-(pyrrolidin-1-yl)propyl methylcarbamate] | < 30
25 | CCCCCCCC(=O)N[C@H](CN1CCCC1)[C@H](OC(=O)CN(C)C)c1ccc2c(c1)OCCO2 [I-w, (1R,2R)-1-(2,3-dihydrobenzo[b][1,4]dioxin-6-yl)-2-octanamido-3-(pyrrolidin-1-yl)propyl dimethylglycinate] | < 30
26 | CCCCCCCC(=O)N[C@H](CN1CCCC1)[C@H](OC(=O)CCN1CCOCC1)c1ccc2c(c1)OCCO2 [I-x, (1R,2R)-1-(2,3-dihydrobenzo[b][1,4]dioxin-6-yl)-2-octanamido-3-(pyrrolidin-1-yl)propyl 3-morpholinopropanoate] | < 30
27 | CCCCCCCC(=O)N[C@H](CN1CCCC1)[C@H](OC(=O)CC(=O)O)c1ccc2c(c1)OCCO2 [I-z, 3-((1R,2R)-1-(2,3-dihydrobenzo[b][1,4]dioxin-6-yl)-2-octanamido-3-(pyrrolidin-1-yl)propoxy)-3-oxopropanoic acid] | > 90
28 | CCCCCCCC(=O)N[C@H](CN1CCCC1)[C@H](OC(=O)COCCOCCOC)c1ccc2c(c1)OCCO2 [II-a, (1R,2R)-1-(2,3-dihydrobenzo[b][1,4]dioxin-6-yl)-2-octanamido-3-(pyrrolidin-1-yl)propyl 2-(2-(2-methoxyethoxy)ethoxy)acetate] | < 30
29 | CCCCCCCC(=O)N[C@H](CN1CCCC1)[C@H](OC(=O)CCOCCOCCN)c1ccc2c(c1)OCCO2 [II-b, (1R,2R)-1-(2,3-dihydrobenzo[b][1,4]dioxin-6-yl)-2-octanamido-3-(pyrrolidin-1-yl)propyl 3-(2-(2-aminoethoxy)ethoxy)propanoate] | > 90
30 | CCCCCCCC(=O)N[C@H](CN1CCCC1)[C@H](OS(N)(=O)=O)c1ccc2c(c1)OCCO2 [IV-c, (1R,2R)-1-(2,3-dihydrobenzo[b][1,4]dioxin-6-yl)-2-octanamido-3-(pyrrolidin-1-yl)propyl sulfamate] | < 30
31 | CCCCCCCC(=O)N[C@H](CN1CCCC1)[C@H](OS(=O)(=O)O)c1ccc2c(c1)OCCO2 [IV-d, (1R,2R)-1-(2,3-dihydrobenzo[b][1,4]dioxin-6-yl)-2-octanamido-3-(pyrrolidin-1-yl)propyl hydrogen sulfate] | > 90

From US11760741B2, “Pro-drugs of eliglustat” (KASHIV BIOSCIENCES, LLC, priority 2018, dated 2023)
